According to patent publication US20230085307A1, “PYRIDAZINONE COMPOUND AND HERBICIDE” (NISSAN CHEMICAL CORPORATION, priority 2019, published 2023):

Columns and labels:
late watergrass = test: Test Example 1: herbicidal activity, application before weed generation under submerged conditions (Table 16, symbol A); format: in vivo, late watergrass (Echinochloa oryzicola); conditions: 320 g/ha applied herbicide
Method in brief: (§1)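 Alluvial soil was flooded to 4 cm depth, weed seeds were sown mixed and 2.5-leaf rice seedlings were transplanted. On sowing day, the compound's emulsion, diluted in water to a set dose, was applied to the water surface. Plants grew at 25–30 °C and were scored 0–5 after three weeks.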

Japanese bulrush = test: Test Example 1: herbicidal activity, application before weed generation under submerged conditions (Table 16, symbol B); format: in vivo, Japanese bulrush (Schoenoplectus juncoides); conditions: 320 g/ha applied herbicide
Method in brief: as §1

oval-leafed pondweed = test: Test Example 1: herbicidal activity, application before weed generation under submerged conditions (Table 16, symbol C); format: in vivo, oval-leafed pondweed (Monochoria vaginalis); conditions: 320 g/ha applied herbicide
Method in brief: as §1

barnyard grass [1] = test: Test Example 3: herbicidal effect by foliage application, Wagner pot (Table 18, symbol H); format: in vivo, barnyard grass (Echinochloa crus-galli)
Method in brief: (§2)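 Plants were sown in alluvial soil held under 0.1–0.5 cm standing water and grown 14 days in a greenhouse at 25–30 °C. An emulsifiable formulation, water-diluted to the set dose, was then sprayed onto the foliage, and effects were scored three weeks later using previously defined criteria.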

Chinese sprangletop = test: Test Example 3: herbicidal effect by foliage application, Wagner pot (Table 18, symbol D); format: in vivo, chinese sprangletop (Leptochloa chinensis)
Method in brief: as §2

rice flat sedge = test: Test Example 3: herbicidal effect by foliage application, Wagner pot (Table 18, symbol E); format: in vivo, rice flat sedge (Cyperus iria)
Method in brief: as §2

southern crabgrass [2] = test: Test Example 4: herbicidal effect by soil treatment (Table 19, symbol F); format: in vivo, southern crabgrass (Digitaria ciliaris)
Method in brief: (§3)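 Pre-emergence style soil spray: seeds under ~1.5 cm sterilized diluvial soil received a uniform coat of emulsion diluted to the predetermined herbicide amount. Greenhouse 25–30° C; readout at week three on previously defined criteria.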

green foxtail [3] = test: Test Example 4: herbicidal effect by soil treatment (Table 19, symbol G); format: in vivo, green foxtail (Setaria viridis)
Method in brief: as §3

barnyard grass [4] = test: Test Example 4: herbicidal effect by soil treatment (Table 19, symbol H); format: in vivo, barnyard grass (Echinochloa crus-galli)
Method in brief: as §3

wild oat [5] = test: Test Example 4: herbicidal effect by soil treatment (Table 19, symbol I); format: in vivo, wild oat (Avena fatua)
Method in brief: as §3

Italian ryegrass [6] = test: Test Example 4: herbicidal effect by soil treatment (Table 19, symbol K); format: in vivo, Italian ryegrass (Lolium multiflorum)
Method in brief: as §3

windgrass [7] = test: Test Example 4: herbicidal effect by soil treatment (Table 19, symbol L); format: in vivo, windgrass (Apera spica-venti)
Method in brief: as §3

velvetleaf [8] = test: Test Example 4: herbicidal effect by soil treatment (Table 19, symbol M); format: in vivo, velvetleaf (Abutilon theophrasti)
Method in brief: as §3

redroot pigweed [9] = test: Test Example 4: herbicidal effect by soil treatment (Table 19, symbol N); format: in vivo, redroot pigweed (Amaranthus retroflexus)
Method in brief: as §3

lambsquarters [10] = test: Test Example 4: herbicidal effect by soil treatment (Table 19, symbol O); format: in vivo, lambsquarters (Chenopodium album)
Method in brief: as §3

chickweed [11] = test: Test Example 4: herbicidal effect by soil treatment (Table 19, symbol P); format: in vivo, common chickweed (Stellaria media)
Method in brief: as §3

persian speedwell [12] = test: Test Example 4: herbicidal effect by soil treatment (Table 19, symbol R); format: in vivo, Persian speedwell (Veronica persica)
Method in brief: as §3

southern crabgrass [13] = test: Test Example 5: herbicidal effect by foliage application, plastic box (Table 20, symbol F); format: in vivo, southern crabgrass (Digitaria ciliaris); conditions: foliage application
Method in brief: (§4)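 Plants were sown into sterilized diluvial soil under about 1.5 cm cover and kept in a greenhouse at 25° C. to 30° C. Fourteen days on, foliage received an even spray of the diluted emulsion. Herbicidal or crop effect was judged three weeks afterwards.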

green foxtail [14] = test: Test Example 5: herbicidal effect by foliage application, plastic box (Table 20, symbol G); format: in vivo, green foxtail (Setaria viridis); conditions: foliage application
Method in brief: as §4

barnyard grass [15] = test: Test Example 5: herbicidal effect by foliage application, plastic box (Table 20, symbol H); format: in vivo, barnyard grass (Echinochloa crus-galli); conditions: foliage application
Method in brief: as §4

wild oat [16] = test: Test Example 5: herbicidal effect by foliage application, plastic box (Table 20, symbol I); format: in vivo, wild oat (Avena fatua); conditions: foliage application
Method in brief: as §4

blackgrass [17] = test: Test Example 5: herbicidal effect by foliage application, plastic box (Table 20, symbol J); format: in vivo, blackgrass (Alopecurus myosuroides); conditions: foliage application
Method in brief: as §4

Italian ryegrass [18] = test: Test Example 5: herbicidal effect by foliage application, plastic box (Table 20, symbol K); format: in vivo, Italian ryegrass (Lolium multiflorum); conditions: foliage application
Method in brief: as §4

windgrass [19] = test: Test Example 5: herbicidal effect by foliage application, plastic box (Table 20, symbol L); format: in vivo, windgrass (Apera spica-venti); conditions: foliage application
Method in brief: as §4

velvetleaf [20] = test: Test Example 5: herbicidal effect by foliage application, plastic box (Table 20, symbol M); format: in vivo, velvetleaf (Abutilon theophrasti); conditions: foliage application
Method in brief: as §4

redroot pigweed [21] = test: Test Example 5: herbicidal effect by foliage application, plastic box (Table 20, symbol N); format: in vivo, redroot pigweed (Amaranthus retroflexus); conditions: foliage application
Method in brief: as §4

lambsquarters [22] = test: Test Example 5: herbicidal effect by foliage application, plastic box (Table 20, symbol O); format: in vivo, lambsquarters (Chenopodium album); conditions: foliage application
Method in brief: as §4

chickweed [23] = test: Test Example 5: herbicidal effect by foliage application, plastic box (Table 20, symbol P); format: in vivo, common chickweed (Stellaria media); conditions: foliage application
Method in brief: as §4

false cleavers = test: Test Example 5: herbicidal effect by foliage application, plastic box (Table 20, symbol Q); format: in vivo, false cleavers (Galium spurium); conditions: foliage application
Method in brief: as §4

persian speedwell [24] = test: Test Example 5: herbicidal effect by foliage application, plastic box (Table 20, symbol R); format: in vivo, Persian speedwell (Veronica persica); conditions: foliage application
Method in brief: as §4

blackgrass [25] = test: Test Example 4: herbicidal effect by soil treatment (Table 19, symbol J); format: in vivo, blackgrass (Alopecurus myosuroides); conditions: amount of applied herbicide 320 g/ha
Method in brief: as §3

[26] = AAH 320 g/ha, three weeks after application
[27] = amount of applied herbicide 320 g/ha
[28] = 320 g/ha, evaluated three weeks after application

Cc1nn(C)c(=O)c(-c2c(-c3ccccc3OCC3CC3)sc3ccccc23)c1O [1-113]
Herbicidal effect on A: late watergrass (grade 0-5) (late watergrass): 3 (Herbicidal rate of 40% or more and less than 70%)
Herbicidal effect on B: Japanese bulrush (grade 0-5) (Japanese bulrush): 0 (Herbicidal rate of 5% or less (almost no effect))
Herbicidal effect on C: oval-leafed pondweed (grade 0-5) (oval-leafed pondweed): 0 (Herbicidal rate of 5% or less (almost no effect))
herbicidal effect on H (barnyard grass), rating 0-5 (barnyard grass [1]; 320 g/ha): 4 (Herbicidal rate of 70% or more and less than 90%)
herbicidal effect on D (Chinese sprangletop), rating 0-5 (Chinese sprangletop; 320 g/ha): 0 (Herbicidal rate of 5% or less (almost no effect))
herbicidal effect on E (rice flat sedge), rating 0-5 (rice flat sedge; 320 g/ha): 3 (Herbicidal rate of 40% or more and less than 70%)
F: southern crabgrass, herbicidal effect rating (southern crabgrass [2]; AAH 320 g/ha): 2 (Herbicidal rate of 20% or more and less than 40%)
G: green foxtail, herbicidal effect rating (green foxtail [3]; AAH 320 g/ha): 1 (Herbicidal rate of 5% or more and less than 20%)
H: barnyard grass, herbicidal effect rating (barnyard grass [4]; AAH 320 g/ha): 3 (Herbicidal rate of 40% or more and less than 70%)
I: wild oat, herbicidal effect rating (wild oat [5]; AAH 320 g/ha): 1 (Herbicidal rate of 5% or more and less than 20%)
K: Italian ryegrass, herbicidal effect rating (Italian ryegrass [6]; AAH 320 g/ha): 0 (Herbicidal rate of 5% or less (almost no effect))
L: windgrass, herbicidal effect rating (windgrass [7]; AAH 320 g/ha): 0 (Herbicidal rate of 5% or less (almost no effect))
M: velvetleaf, herbicidal effect rating (velvetleaf [8]; AAH 320 g/ha): 0 (Herbicidal rate of 5% or less (almost no effect))
N: redroot pigweed, herbicidal effect rating (redroot pigweed [9]; AAH 320 g/ha): 3 (Herbicidal rate of 40% or more and less than 70%)
O: lambsquarters, herbicidal effect rating (lambsquarters [10]; AAH 320 g/ha): 2 (Herbicidal rate of 20% or more and less than 40%)
P: chickweed, herbicidal effect rating (chickweed [11]; AAH 320 g/ha): 4 (Herbicidal rate of 70% or more and less than 90%)
R: persian speedwell, herbicidal effect rating (persian speedwell [12]; AAH 320 g/ha): 5 (Herbicidal rate of 90% or more (almost completely withered))
F: southern crabgrass, herbicidal effect (southern crabgrass [13]; [26]): 0 (Herbicidal rate of 5% or less (almost no effect))
G: green foxtail, herbicidal effect (green foxtail [14]; [26]): 0 (Herbicidal rate of 5% or less (almost no effect))
H: barnyard grass, herbicidal effect (barnyard grass [15]; [26]): 1 (Herbicidal rate of 5% or more and less than 20%)
I: wild oat, herbicidal effect (wild oat [16]; [26]): 1 (Herbicidal rate of 5% or more and less than 20%)
J: blackgrass, herbicidal effect (blackgrass [17]; [26]): 3 (Herbicidal rate of 40% or more and less than 70%)
K: Italian ryegrass, herbicidal effect (Italian ryegrass [18]; [26]): 1 (Herbicidal rate of 5% or more and less than 20%)
L: windgrass, herbicidal effect (windgrass [19]; [26]): 2 (Herbicidal rate of 20% or more and less than 40%)
M: velvetleaf, herbicidal effect (velvetleaf [20]; [26]): 3 (Herbicidal rate of 40% or more and less than 70%)
N: redroot pigweed, herbicidal effect (redroot pigweed [21]; [26]): 0 (Herbicidal rate of 5% or less (almost no effect))
O: lambsquarters, herbicidal effect (lambsquarters [22]; [26]): 0 (Herbicidal rate of 5% or less (almost no effect))
P: chickweed, herbicidal effect (chickweed [23]; [26]): 5 (Herbicidal rate of 90% or more (almost completely withered))
Q: false cleavers, herbicidal effect (false cleavers; [26]): 5 (Herbicidal rate of 90% or more (almost completely withered))
R: persian speedwell, herbicidal effect (persian speedwell [24]; [26]): 5 (Herbicidal rate of 90% or more (almost completely withered))

CCCC(=O)Oc1c(C)nn(C)c(=O)c1-c1c(-c2ccc(OC)c(F)c2)sc2ccc(Cl)cc12 [2-118]
Herbicidal effect on A: late watergrass (grade 0-5) (late watergrass): 4 (Herbicidal rate of 70% or more and less than 90%)
Herbicidal effect on B: Japanese bulrush (grade 0-5) (Japanese bulrush): 3 (Herbicidal rate of 40% or more and less than 70%)
Herbicidal effect on C: oval-leafed pondweed (grade 0-5) (oval-leafed pondweed): 0 (Herbicidal rate of 5% or less (almost no effect))
herbicidal effect on H: barnyard grass (barnyard grass [1]; [27]): 2 (Herbicidal rate of 20% or more and less than 40%)
herbicidal effect on D: Chinese sprangletop (Chinese sprangletop; [27]): 0 (Herbicidal rate of 5% or less (almost no effect))
herbicidal effect on E: rice flat sedge (rice flat sedge; [27]): 0 (Herbicidal rate of 5% or less (almost no effect))
F: southern crabgrass, herbicidal effect rating (southern crabgrass [2]; [27]): 0 (Herbicidal rate of 5% or less (almost no effect))
G: green foxtail, herbicidal effect rating (green foxtail [3]; [27]): 0 (Herbicidal rate of 5% or less (almost no effect))
H: barnyard grass, herbicidal effect rating (barnyard grass [4]; [27]): 0 (Herbicidal rate of 5% or less (almost no effect))
I: wild oat, herbicidal effect rating (wild oat [5]; [27]): 0 (Herbicidal rate of 5% or less (almost no effect))
J: blackgrass, herbicidal effect rating (blackgrass [25]): 0 (Herbicidal rate of 5% or less (almost no effect))
K: Italian ryegrass, herbicidal effect rating (Italian ryegrass [6]; [27]): 0 (Herbicidal rate of 5% or less (almost no effect))
L: windgrass, herbicidal effect rating (windgrass [7]; [27]): 0 (Herbicidal rate of 5% or less (almost no effect))
M: velvetleaf, herbicidal effect rating (velvetleaf [8]; [27]): 1 (Herbicidal rate of 5% or more and less than 20%)
N: redroot pigweed, herbicidal effect rating (redroot pigweed [9]; [27]): 0 (Herbicidal rate of 5% or less (almost no effect))
O: lambsquarters, herbicidal effect rating (lambsquarters [10]; [27]): 2 (Herbicidal rate of 20% or more and less than 40%)
P: chickweed, herbicidal effect rating (chickweed [11]; [27]): 4 (Herbicidal rate of 70% or more and less than 90%)
R: persian speedwell, herbicidal effect rating (persian speedwell [12]; [27]): 5 (Herbicidal rate of 90% or more (almost completely withered))
herbicidal effect on F: southern crabgrass (southern crabgrass [13]; [28]): 0 (Herbicidal rate of 5% or less (almost no effect))
herbicidal effect on G: green foxtail (green foxtail [14]; [28]): 0 (Herbicidal rate of 5% or less (almost no effect))
herbicidal effect on H: barnyard grass (barnyard grass [15]; [28]): 0 (Herbicidal rate of 5% or less (almost no effect))
herbicidal effect on I: wild oat (wild oat [16]; [28]): 0 (Herbicidal rate of 5% or less (almost no effect))
herbicidal effect on J: blackgrass (blackgrass [17]; [28]): 0 (Herbicidal rate of 5% or less (almost no effect))
herbicidal effect on K: Italian ryegrass (Italian ryegrass [18]; [28]): 0 (Herbicidal rate of 5% or less (almost no effect))
herbicidal effect on L: windgrass (windgrass [19]; [28]): 0 (Herbicidal rate of 5% or less (almost no effect))
herbicidal effect on M: velvetleaf (velvetleaf [20]; [28]): 3 (Herbicidal rate of 40% or more and less than 70%)
herbicidal effect on N: redroot pigweed (redroot pigweed [21]; [28]): 0 (Herbicidal rate of 5% or less (almost no effect))
herbicidal effect on O: lambsquarters (lambsquarters [22]; [28]): 1 (Herbicidal rate of 5% or more and less than 20%)
herbicidal effect on P: chickweed (chickweed [23]; [28]): 5 (Herbicidal rate of 90% or more (almost completely withered))
herbicidal effect on Q: false cleavers (false cleavers; [28]): 1 (Herbicidal rate of 5% or more and less than 20%)
herbicidal effect on R: persian speedwell (persian speedwell [24]; [28]): 5 (Herbicidal rate of 90% or more (almost completely withered))
